Assay results taken from US20260130928A1, “COMBINATION OF AKR1C3 ACTIVATED ANTICANCER PRODRUG COMPOUND AND ANALGESIC DRUG FOR TREATING CANCER PATIENTS ACCOMPANIED BY PAIN” (ASCENTAWITS PHARMACEUTICALS, LTD., priority 2022, published 2026).
Where two headings read alike, the source gives them in different places.

Tests used:
[1] = tested on: AKR1C3; details: reported in literature; cited from earlier work
[2] = tested on: H460 cell line; test: In vitro cell proliferation inhibition with the drug combination (CTG method); format: cell-based, human; details: combined with AST-3424
Protocol: • a) H460 cells (human non-small lung cancer cells, AKR1C3 enzyme highly expressed) were cultured in RPMI-1640 medium, added with 10% FBS and 1% double antibody, and placed at 37° C. and 5% CO2 for culturing.
• a) The cells were routinely cultured until the cell saturation was 80%-90%, and when the required quantity was reached, the cells were collected. • b) The cells were resuspended with the corresponding medium and cell counts were performed to prepare a cell suspension with appropriate density. • c) The cell suspension was added to a 96-well plate with 100 μL per well, and the cell density was 2,000 cells per well. • d) The cells were incubated overnight in an incubator at 37° C. with 5% CO2. 1.1.3 Treating Cells with Compound (72 Hours)
AST-3424 alone: after 24 hours of cell seeding, AST-3424 was administered alone. Specifically, each well was supplemented with 99 μL of growth medium, and then added with 1 μL of the prepared AST-3424 solution to form different concentrations of AST-3424. The plate was shaken gently to ensure uniform mixing, and placed in an incubator at 37° C. with 5% CO2.
The cell plates were placed in the incubator for 72 hours.
1.1.4 Treating Cells with Compound (2 Hours) • a) Administrating single drug: after 24 hours of cell seeding, AST-3424 was administered alone. Specifically, each well was supplemented with 99 μL of growth medium, and then added with 1 μL of the prepared AST-3424 solution to form different concentrations of AST-3424. The plate was shaken gently to ensure uniform mixing, and placed in the incubator for 2 hours. […] The plate was shaken gently to ensure uniform mixing. After the plate was placed in the incubator for 2 hours, 1 μL of the prepared AST-3424 solution was added to form different concentrations of AST-3424. The plate was shaken gently to ensure uniform mixing, and placed in the incubator at 37° C. with 5% CO2 for another 2 hours. Then, the supernatant was discarded, and the remainder was washed twice with growth medium and added with 200 μL of fresh medium.
1.1.6 Detecting with CTG Method • a) The cell plate to be tested was placed at room temperature to equilibrium for 30 minutes, and 100 μL of culture medium was discarded from each well. • b) 25 μL CTG reagent (CelltiterGlo kit) was added to each well. The plate was placed on a fast shaker to shake for 2 minutes, and then placed at room temperature away from light for 30 minutes. • c) The chemiluminescent signal value was read with multifunctional microplate reader at reading time of 1000 ms.
IC50 was calculated with GraphPad Prism 5 software, and the IC50 (half maximal inhibitory concentration) of the compound was obtained using the following nonlinear fitting formula: […]

[3] = tested on: H460 cell line; test: Cell proliferation inhibition by combining Naproxen or TH-3021 and AST-3424 in different sequence of administration (CTG); format: cell-based, human; details: for effect of subsequent addition on the efficacy of AST-3424: Group 3: added after 2 h AST-3424 pretreatment and washing
Protocol: The following are the different treatment methods. […] The plate was shaken gently to ensure uniform mixing, and placed in the incubator for 2 hours. […] The plate was shaken gently to ensure uniform mixing, and placed in the incubator for 2 hours. Subsequently, the plate was washed to remove the compound, and placed in the incubator at 37° C. with 5% CO2 for further 72 hours. […] The plate was shaken gently to ensure uniform mixing, and placed in the incubator for 2 hours. Subsequently, the plate was washed to remove the compounds, and placed in the incubator at 37° C. with 5% CO2 for 72 hours. […] The plate was shaken gently to ensure uniform mixing, and placed in the incubator for 2 hours. […] The plate was shaken gently to ensure uniform mixing, and placed in the incubator for 2 hours. Subsequently, the plate was washed to remove the compounds, and placed in the incubator at 37° C. with 5% CO2 for further 72 hours. […] The plate was shaken gently to ensure uniform mixing, and placed in the incubator for 2 hours. […] The plate was shaken gently to ensure uniform mixing, and placed in the incubator for 2 hours. Subsequently, the plate was washed to remove the compounds, and placed in the incubator at 37° C. with 5% CO2 for further 72 hours. b) Administrating single drug: after 24 hours of cell seeding, the compound was administered alone. […] The plate was shaken gently to ensure uniform mixing, and placed in the incubator at 37° C. with 5% CO2 for 2 hours. Subsequently, the compound was washed off, and each well was added with fresh medium. The plate was placed in the incubator at 37° C. with 5% CO2 for further 72 hours.

[4] = cited from earlier work; for AUC0-t / Cmax / T1/2 / Tmax: patients, mean
[5] = OBI-3424 dose level 1 mg/m^2, infusion
[6] = OBI-3424 dose level 2 mg/m^2, infusion
[7] = OBI-3424 dose level 4 mg/m^2, infusion
[8] = OBI-3424 dose level 6 mg/m^2, infusion
[9] = OBI-3424 dose level 8 mg/m^2, infusion
[10] = OBI-3424 dose level 10 mg/m^2, infusion
[11] = OBI-3424 dose level 12 mg/m^2, infusion
[12] = OBI-3424 dose level 14 mg/m^2, infusion

CC(=O)Oc1ccccc1C(=O)O [Aspirin]
AKR1C3 inhibitory activity [1]: have AKR1C3 inhibitory activity

O=C(O)Cc1ccccc1Nc1c(Cl)cccc1Cl [Diclofenac]
AKR1C3 inhibitory activity [1]: have AKR1C3 inhibitory activity

CC(C(=O)O)c1cccc(Oc2ccccc2)c1 (stereo not shown) [Fenoprofen]
AKR1C3 inhibitory activity [1]: have AKR1C3 inhibitory activity

CC(C(=O)O)c1ccc(-c2ccccc2)c(F)c1 (stereo not shown) [Flurbiprofen]
AKR1C3 inhibitory activity [1]: have AKR1C3 inhibitory activity

COc1ccc2c(c1)c(CC(=O)O)c(C)n2C(=O)c1ccc(Cl)cc1 [Indomethacin]
AKR1C3 inhibitory activity [1]: has AKR1C3 inhibitory activity

Cc1ccc(Cl)c(Nc2ccccc2C(=O)O)c1Cl [Meclofenamic Acid]
AKR1C3 inhibitory activity [1]: have AKR1C3 inhibitory activity

Cc1cccc(Nc2ccccc2C(=O)O)c1C [Mefenamic acid]
AKR1C3 inhibitory activity [1]: have AKR1C3 inhibitory activity

COc1ccc2cc([C@H](C)C(=O)O)ccc2c1 [Naproxen, reference compound]
effect of the combination on the cell proliferation inhibitory activity of AST-3424 [2]: significantly affect
effect of subsequent addition on the efficacy of AST-3424 [3]: no longer affected the efficacy of AST-3424
AKR1C3 inhibitory activity [1]: have AKR1C3 inhibitory activity

O=P(O)(N1CC1)N1CC1 [OBI-2660]
AUC0-t [4, 5]: 7.30 ng·h/mL
Cmax [4, 5]: 1.70 ng/mL
T1/2 [4, 5]: 3.08 h
Tmax [4, 5]: 1.75 h
AUC0-t [4, 6]: 10.00 ng·h/mL
Cmax [4, 6]: 2.30 ng/mL
T1/2 [4, 6]: 2.48 h
Tmax [4, 6]: 1.67 h
AUC0-t [4, 7]: 19.30 ng·h/mL
Cmax [4, 7]: 5.00 ng/mL
T1/2 [4, 7]: 2.00 h
Tmax [4, 7]: 1.33 h
AUC0-t [4, 8]: 27.40 ng·h/mL
Cmax [4, 8]: 6.80 ng/mL
T1/2 [4, 8]: 2.09 h
Tmax [4, 8]: 1.75 h
AUC0-t [4, 9]: 32.80 ng·h/mL
Cmax [4, 9]: 8.50 ng/mL
T1/2 [4, 9]: 1.87 h
Tmax [4, 9]: 1.44 h
AUC0-t [4, 10]: 29.20 ng·h/mL
Cmax [4, 10]: 10.10 ng/mL
T1/2 [4, 10]: 2.99 h
Tmax [4, 10]: 1.67 h
AUC0-t [4, 11]: 56.60 ng·h/mL
Cmax [4, 11]: 13.10 ng/mL
T1/2 [4, 11]: 2.41 h
Tmax [4, 11]: 1.53 h
AUC0-t [4, 12]: 45.60 ng·h/mL
Cmax [4, 12]: 11.20 ng/mL
T1/2 [4, 12]: 2.46 h
Tmax [4, 12]: 1.75 h
accumulation of exposure (Cmax and AUC) ([4]; between the two doses (Cycle 1 Day1 and Cycle 1 Day8)): no accumulation of exposure

CC(=O)Nc1ccc(O)cc1 [Paracetamol]
AKR1C3 inhibitory activity [1]: have AKR1C3 inhibitory activity

O=C([O-])c1ccccc1O.[Na+] [Sodium salicylate]
AKR1C3 inhibitory activity [1]: have AKR1C3 inhibitory activity

CC1=C(CC(=O)O)c2cc(F)ccc2/C1=C\c1ccc([S+](C)[O-])cc1 (stereo not shown) [Sulindac]
AKR1C3 inhibitory activity [1]: have AKR1C3 inhibitory activity

O=C(N1CCOCC1)N1CCN(c2ccc(Cl)cc2Cl)CC1 [TH-3021, reference compound]
effect of subsequent addition on the efficacy of AST-3424 [3]: no longer affected the efficacy of AST-3424
difference in IC50 values of AST-3424 (fold) ([3]; group 1 (TH-3021 pretreatment, washed off)): 6 fold
difference in IC50 values of AST-3424 (fold) ([3]; groups 2 and 4 (TH-3021 present together with AST-3424)): 200 fold
AKR1C3 inhibitory activity [1]: specific inhibitor of AKR1C3

Cc1ccc(C(=O)c2ccc(CC(=O)O)n2C)cc1 [Tolmetin]
AKR1C3 inhibitory activity [1]: have AKR1C3 inhibitory activity

Cc1cc(CC(=O)O)n(C)c1C(=O)c1ccc(Cl)cc1 [Zomepirac]
AKR1C3 inhibitory activity [1]: have AKR1C3 inhibitory activity
